# In patent US8945832B2, “Treatment prediction involving HMGCR” (Atlas Antibodies AB, priority 2008, dated 2015):
# Read-outs that look alike come from different tables or passages of the source.
# Columns and labels:
# [1] = test system: MCF-7 breast cancer cells; settings: MCF-7 cells; cited from earlier work
# [2] = test system: stage II invasive breast cancer; assay: Randomized premenopausal cohort: recurrence free survival, adjuvant tamoxifen vs no adjuvant endocrine treatment, by HMGCR protein status (IHC on TMA); assay type: in vivo, human; settings: for outcome (RFS) of HMGCR positive and ER negative vs HMGCR negative and ER positive patients: tamoxifen treated cohort
# Description: The inclusion criteria were pre-menopausal patients, or patients younger than 50 years, with stage II (pT2 N0 M0, pT1-2 N1 M0) invasive breast cancer treated by modified mastectomy or breast conserving surgery with axillary lymph node dissection. Post-operative radiotherapy (50 Gy) was administered after breastconserving surgery and all lymph node-positive patients received locoregional radiotherapy. […] The study design is described in detail elsewhere (Rydén L et al, Eur J Cancer, 2005, 41(2): 256-64). Ethical permission was obtained from the Local Ethics Committees at Lund and Linköping Universities.
# Tissue blocks from 500 of the 564 patients could be retrieved for TMA-construction. All cases had been histopathologically re-evaluated on hematoxylin and eosin stained slides. TMA:s were constructed by sampling 2×0.6 mm cores per case from areas representative of invasive cancer, using an manual arraying device (MTA-1, Beecher Inc, WI, USA). […] IHC staining of ER and PR had been performed previously. In line with current clinical praxis, a cut-off at 10% positive nuclei was used to define hormone receptor positivity.
# For statistical analyses, the cytoplasmic intensity (CI) level was evaluated, in line with what is described in Examples, Section 3 above. […] Two categories were defined: “HMGCR high” corresponding to CI=weak, moderate and strong and “HMGCR low” corresponding to CI=absent This classification of samples was used for RFS analysis according to the Kaplan-Meier estimator, and the log-rank test was used to compare survival in different strata. ER and PR negativity was defined as <10% positively staining nuclei, according to current clinical guidelines in Sweden. All statistical tests were two-sided, and p-values of <0.05 were considered significant. All calculations were made with the statistical package SPSS 17.0 (SPSS Inc. Illinois, USA).
# primary breast tumors = assay: Gene expression analysis of breast cancer: RFS by HMGCR mRNA level in tamoxifen treated patients (GSE 9893); assay type: in vivo, human
# Text: Data was collected from a previously performed microarray study, Chanrion et al, based on a patient cohort of 155 primary breast tumors obtained from patients who had undergone initial surgery between 1989 and 2001 at the Cancer Research Center of Val d'Aurelle in Montpellier, the Bergonie' Institute in Bordeaux, or the Department of Obstetrics and Gynecology of Turin.
# The median follow-up time for all patients was 5.5 years. Eight tumors were ER negative, and six of these tumors were progesterone receptor (PR) positive. No patient received neoadjuvant systemic chemotherapy. […] 121 patients also received adjuvant radiotherapy. Raw gene expression data and clinical data were downloaded from Gene Expression Omnibus (http://www.ncbi.nlm.nih.gov/GEO/) (accession number GSE 9893). The log ratio of gene expression values was used without further transformation. For statistical analysis HMGCR mRNA expression levels were analysed as a continuous variable.
# breast cancer [3] = settings: cited from earlier work
# breast cancer [4] = settings: cited from earlier work; remark: listed apart in the source
# breast cancer [5] = settings: cited from earlier work; remark: listed apart in the source
# breast cancer [6] = settings: patients with ER positive tumors, irrespective of lymph node status; five years adjuvant; cited from earlier work
# breast cancer [7] = settings: 5 years tamoxifen compared to no adjuvant treatment; cited from earlier work
structure (smiles),measurement,setting,value
CC[C@H](C)C(=O)O[C@H]1CCC=C2C=C[C@H](C)[C@H](CC[C@@H]3C[C@@H](O)CC(=O)O3)[C@H]21 [mevastatin],induction of HMGCR activity,[1],10- to 15 fold
same,induction of HMGCR mRNA expression,[1],2.5- to 3.5 fold
CC/C(=C(\c1ccccc1)c1ccc(OCCN(C)C)cc1)c1ccccc1 [tamoxifen],RFS of HMGCR high vs HMGCR low category,"[2]; ER positive tamoxifen treated subjects, FIG. 2a",significantly better RFS
same,effect of tamoxifen treatment on recurrence free survival,"[2]; HMGCR negative and ER negative subjects, FIG. 10b",no positive effect
same,effect of tamoxifen treatment on recurrence free survival,"[2]; HMGCR positive and ER negative subjects, FIG. 9a",improved survival
same,effect of tamoxifen treatment on recurrence free survival,"[2]; HMGCR positive and ER negative, lymph node positive patients, FIG. 9b",further enhanced
same,tamoxifen impact on survival (RFS),"[2]; HMGCR positive and PR negative subjects, FIG. 12, not statistically significant",trend of tamoxifen impact on survival
same,effect of tamoxifen treatment on recurrence free survival,"[2]; HMGCR positive or ER positive subjects, FIG. 10a",significantly positive effect
same,response to tamoxifen treatment (RFS),"[2]; PR negative and HMGCR negative subjects, FIG. 11b",no response
same,response to tamoxifen treatment (RFS),"[2]; PR positive and HMGCR positive subjects, FIG. 11a",significant response
same,RFS associated with HMGCR expression,"[2]; lymph node positive patients who received tamoxifen, FIG. 4a, p=0.001",improved RFS
same,outcome (RFS) of HMGCR positive and ER negative vs HMGCR negative and ER positive patients,"[2]; node positive subjects, FIG. 6a",better outcome
same,RFS of HMGCR high vs HMGCR low category,"[2]; patients treated with tamoxifen, FIG. 1a, p=0.001",significantly better RFS
same,effect of tamoxifen treatment on recurrence free survival,"[2]; patients with HMGCR high tumors, irrespective of ER status, tamoxifen vs no adjuvant endocrine treatment, FIG. 8a",significantly improved survival
same,effect of tamoxifen treatment on recurrence free survival,"[2]; patients with HMGCR low tumors, irrespective of ER status, FIG. 8b",no impact on survival
same,effect of HMGCR level on RFS,"[2]; tamoxifen treated ER negative subjects, FIG. 7a",positive effect on RFS
same,outcome (RFS) of HMGCR positive and ER negative vs HMGCR negative and ER positive patients,[2]; FIG. 3a,better outcome
same,RFS of high vs low HMGCR mRNA expression,"primary breast tumors; ER positive subjects only, adjuvant tamoxifen, FIG. 13b",improved RFS
same,RFS of high vs low HMGCR mRNA expression,"primary breast tumors; all 155 patients, adjuvant tamoxifen 20 mg daily for 5 years, FIG. 13a",significantly better RFS
same,"disease free survival, tamoxifen vs no adjuvant treatment",breast cancer [3]; older patients (≧60 years) with ERα+/PR+ tumors,significantly longer disease free survival
same,"disease free survival, tamoxifen vs no adjuvant treatment",breast cancer [3]; younger patients (<60 years),no significant effect
same,ERα positive patients who do not respond to tamoxifen treatment,breast cancer [4],30-40%
same,recurrence-free and overall survival in tamoxifen treated patients,"breast cancer [5]; high expression (>75% nuclear fraction) of PR, irrespectively of ERα status",increased recurrence-free and overall survival
same,effect from tamoxifen treatment,"breast cancer [5]; lower PR level, <75%",no positive effect
same,breast cancer mortality,breast cancer [6],reduces the breast cancer mortality
same,reduction in breast cancer specific mortality,breast cancer [7],34%
same,reduction in disease recurrence,breast cancer [7],41%
